Values quoted from earlier work, collected in US4717569A, “Unit dosage form of sparingly soluble medicaments” (Sterling Drug Inc., priority 1984, dated 1988).

What was measured:
pituitary gonadotrophins = details: in patients, background
[1] = in patients, background
[2] = pH 6.0-7.0, intestinal juices

| SMILES | effect on pituitary gonadotrophins (pituitary gonadotrophins) | oestrogenic or progestational activity [1] | solubility at intestinal pH [2] |
| --- | --- | --- | --- |
| C#C[C@]1(O)CC[C@H]2[C@@H]3CCC4=Cc5oncc5C[C@]4(C)[C@H]3CC[C@@]21C [Compound A, 17α-pregna-2,4-diene-20-yno[2,3-d]isoxazol-17-ol] | inhibits the synthesis or release of pituitary gonadotrophins | without exhibiting oestrogenic or progestational activity |  |
| OCCN(CCO)c1nc(N2CCCCC2)c2nc(N(CCO)CCO)nc(N3CCCCC3)c2n1 [dipyridamole] |  |  | insoluble |
